The test concerns the target T1, Human M4 (Homo sapiens, UniProt P08173).
T1 construct: expressed in transfected cells; host or cells: CHO-K1 (ATCC), co-transfected with chimeric G protein Gqi5
T1 sequence (P08173 1-479): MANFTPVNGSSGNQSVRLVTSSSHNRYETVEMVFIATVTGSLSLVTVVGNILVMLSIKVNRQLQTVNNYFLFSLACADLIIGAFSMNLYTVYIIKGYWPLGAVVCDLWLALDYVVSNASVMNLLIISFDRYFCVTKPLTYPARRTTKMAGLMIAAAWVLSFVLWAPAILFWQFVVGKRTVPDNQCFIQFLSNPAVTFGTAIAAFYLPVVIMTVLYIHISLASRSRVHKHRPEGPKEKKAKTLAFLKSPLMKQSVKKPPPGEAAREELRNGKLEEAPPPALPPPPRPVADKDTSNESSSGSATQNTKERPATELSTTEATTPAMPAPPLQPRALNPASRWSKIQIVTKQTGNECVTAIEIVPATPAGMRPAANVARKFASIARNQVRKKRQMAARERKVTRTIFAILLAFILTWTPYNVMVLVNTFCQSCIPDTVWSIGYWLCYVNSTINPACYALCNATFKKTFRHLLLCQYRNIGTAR
The test is described as follows: mAChR M4 cell-based functional assay (calcium flux, antagonism of EC80 acetylcholine response). Conditions: M4/Gqi5/CHO-K1 cells; for pIC50: decrease of response elicited by EC80 acetylcholine; for remaining activity at 30 µM: CHO-K1, % ACh maximum at 30 μM, read-out: Human M4 Emin. The protocol:
Human or rat M4 cDNA, along with the chimeric G protein Gqi5, were transfected into Chinese hamster ovary (CHO-K1) cells purchased from the American Type Culture Collection using Lipofectamine2000. M4/Gqi5/CHO cells were grown in Ham's F-12 medium containing 10% heat-inactivated fetal bovine serum (FBS), 20 mM HEPES, 500 μg/mL G418 sulfate, and 200 μg/mL Hygromycin B.
For high throughput measurement of agonist-evoked increases in intracellular calcium, CHO-K1 cells stably expressing muscarinic receptors were plated in growth medium lacking G418 and hygromycin at 15,000 cells/20 μL/well in Greiner 384-well black-walled, tissue culture (TC)-treated, clear-bottom plates (VWR). Cells were incubated overnight at 37° C. and 5% CO2. The next day, cells were washed using an ELX 405 (BioTek) with assay buffer; the final volume was then aspirated to 20 μL. Next, 20 μL of a 2.3 μM stock of Fluo-4/acetoxymethyl ester (Invitrogen, Carlsbad, Calif.), prepared as a 2.3 mM stock in DMSO and mixed in a 1:1 ratio with 10% (w/v) Pluronic F-127 and diluted in assay buffer, was added to the wells and the cell plates were incubated for 50 min at 37° C. and 5% CO2. Dye was removed by washing with the ELX 405 and the final volume was aspirated to 20 μL. Compound master plates were formatted in a 10 point concentration-response curve (CRC) format (1:3 dilutions) in 100% DMSO with a starting concentration of 10 or 1 mM using a BRAVO liquid handler (Agilent). Test compound CRCs were then transferred to daughter plates (240 nL) using the Echo acoustic plate reformatter (Labcyte, Sunnyvale, Calif.) and then diluted into assay buffer (40 μL) to a 2× stock using a Thermo Fisher Combi (Thermo Fisher Scientific, Waltham, Mass.).
Calcium flux was measured using the Functional Drug Screening System (FDSS) 6000 or 7000 (Hamamatsu Corporation, Tokyo, Japan) as an increase in the fluorescent static ratio. Compounds were applied to cells (20 μL, 2×) using the automated system of the FDSS at 2 seconds into the protocol and the data were collected at 1 Hz. At 143 s, 10 μL of an EC20 concentration of the muscarinic receptor agonist acetylcholine was added (5×), followed by the addition of 12 μL of an EC80 concentration of acetylcholine at the 268 s time point (5×). Agonist activity was analyzed as a concentration-dependent increase in calcium mobilization upon compound addition. Positive allosteric modulator activity was analyzed as a concentration-dependent increase in the EC20 acetylcholine response. Antagonist activity was analyzed as a concentration-dependent decrease in the EC80 acetylcholine response; for the purposes of the tables herein, an IC50 (inhibitory concentration 50) was calculated as a concentration-dependent decrease of the response elicited by an EC80 concentration of acetylcholine. Concentration-response curves were generated using a four-parameter logistical equation in XLFit curve fitting software (IDBS, Bridgewater, N.J.) for Excel (Microsoft, Redmond, Wash.) or Prism (GraphPad Software, Inc., San Diego, Calif.) or the Dotmatics software platform (Dotmatics, Bishop's Stortford, UK).
Compounds were synthesized as described above. Activity (IC50 and Emin) was determined in the mAChR M4 cell-based functional assay as described above and the data are shown in Table 2.
For orientation: A change in cytosolic calcium serves as a functional read-out for many receptors and channels.

pIC50: −log10 of the molar value.

In general, pIC50 refers to the IC50 on a negative log10 scale, so that one unit is a factor of ten.

As to `Fc1cc(F)c(F)c(-c2nnc(N[C@H]3C[C@@H]4CN(CC5CCCOC5)C[C@@H]4C3)cc2C(F)F)c1` (single isomer, unassigned) [compound 49], the negative logarithm of the IC50 (pIC50) was 8.79. Moreover, the “Human M4 Emin” value (% ACh maximum at 30 μM) was 2%.

`Cc1c(-c2cc(F)ccc2F)nnc(N[C@H]2C[C@@H]3CN(CC4CCOCC4)C[C@@H]3C2)c1C#N` [compound 64, 6-(2,5-difluorophenyl)-5-methyl-3-(((3aR,5s,6aS)-2-((tetrahydro-2H-pyran-4-yl)methyl)octahydrocyclopenta[c]pyrrol-5-yl)amino)pyridazine-4-carbonitrile]: the remaining activity at 30 µM amounted to 3% and the pIC50 was 8.11.

In the case of `[2H]C([2H])(C1CCOCC1)N1C[C@H]2C[C@H](Nc3nnc(-c4cc(F)ccc4C)c(C)c3C(F)(F)F)C[C@H]2C1` [compound 74, (3aR,5s,6aS)-N-(6-(5-fluoro-2-methylphenyl)-5-methyl-4-(trifluoromethyl)pyridazin-3-yl)-2-((tetrahydro-2H-pyran-4-yl)methyl-d2)octahydrocyclopenta[c]pyrrol-5-amine], the remaining activity at 30 µM is 2% and the pIC50 is 6.80.

Consider `OC1(CN2C[C@H]3C[C@H](Nc4cc(C(F)F)c(-c5cc(F)cc(F)c5F)nn4)C[C@H]3C2)CCOCC1` [compound 55, 4-(((3aR,5s,6aS)-5-((5-(difluoromethyl)-6-(2,3,5-trifluorophenyl)pyridazin-3-yl)amino)hexahydrocyclopenta[c]pyrrol-2(1H)-yl)methyl)tetrahydro-2H-pyran-4-ol], for which the remaining activity at 30 µM was 2% and the pIC50 is 8.51.

In the case of `Cc1c(-c2cc(F)ccc2Cl)nnc(N[C@H]2C[C@@H]3CN(CC4CCOCC4)C[C@@H]3C2)c1C#N` [compound 67, 6-(2-chloro-5-fluorophenyl)-5-methyl-3-(((3aR,5s,6aS)-2-((tetrahydro-2H-pyran-4-yl)methyl)octahydrocyclopenta[c]pyrrol-5-yl)amino)pyridazine-4-carbonitrile], the remaining activity at 30 µM turned out to be 2% and the pIC50 was 9.08.

`[2H]C([2H])(C1CCOCC1)N1C[C@H]2C[C@H](Nc3cc(C(F)F)c(-c4cc(F)ccc4C)nn3)C[C@H]2C1` [compound 32, (3aR,5s,6aS)-N-(5-(difluoromethyl)-6-(5-fluoro-2-methylphenyl)pyridazin-3-yl)-2-((tetrahydro-2H-pyran-4-yl)methyl-d2)octahydrocyclopenta[c]pyrrol-5-amine]: the remaining activity at 30 µM was determined as 3% and the pIC50 is 8.56.

Consider `COc1cc(-c2ccccc2F)nnc1N[C@H]1C[C@@H]2CN(CC3CCOCC3)C[C@@H]2C1` [compound 2, (3aR,5s,6aS)-N-(6-(2-fluorophenyl)-4-methoxypyridazin-3-yl)-2-((tetrahydro-2H-pyran-4-yl)methyl)octahydrocyclopenta[c]pyrrol-5-amine], for which the remaining activity at 30 µM is 3% and the pIC50 was 7.98.

Consider `Fc1ccc(F)c(-c2cc(C(F)F)c(N[C@H]3C[C@@H]4CN(C[C@@H]5COCCO5)C[C@@H]4C3)nn2)c1` [compound 80, (3aR,5S,6aS)-2-(((R)-1,4-dioxan-2-yl)methyl)-N-(4-(difluoromethyl)-6-(2,5-difluorophenyl)pyridazin-3-yl)octahydrocyclopenta[c]pyrrol-5-amine], for which the remaining activity at 30 µM came to 4% and the pIC50 was 8.30.

`[2H]C([2H])(C1CCOCC1)N1C[C@H]2C[C@H](Nc3nnc(-c4ccc5nn(C)cc5c4)cc3C)C[C@H]2C1` [compound 22, (3aR,5s,6aS)-N-(4-methyl-6-(2-methyl-2H-indazol-5-yl)pyridazin-3-yl)-2-((tetrahydro-2H-pyran-4-yl)methyl-d2)octahydrocyclopenta[c]pyrrol-5-amine]: the remaining activity at 30 µM was found to be 4% and the pIC50 was 8.74.

Consider `Fc1cc(F)c(F)c(-c2nnc(N[C@H]3C[C@@H]4CN(CC5CCOCC5)C[C@@H]4C3)cc2C(F)F)c1` [compound 41, (3aR,5s,6aS)-N-(5-(difluoromethyl)-6-(2,3,5-trifluorophenyl)pyridazin-3-yl)-2-((tetrahydro-2H-pyran-4-yl)methyl)octahydrocyclopenta[c]pyrrol-5-amine], for which the remaining activity at 30 µM was 3% and the pIC50 is 9.48.

On to `[2H]C([2H])(C1CCOCC1)N1C[C@H]2C[C@H](Nc3nnc(-c4cc(F)ccc4C)cc3C3CC3)C[C@H]2C1` [compound 26, (3aR,5s,6aS)-N-(4-cyclopropyl-6-(5-fluoro-2-methylphenyl)pyridazin-3-yl)-2-((tetrahydro-2H-pyran-4-yl)methyl-d2)octahydrocyclopenta[c]pyrrol-5-amine], for which the remaining activity at 30 µM was 3% and the pIC50 is 6.58.

With `COc1ccc(F)cc1-c1nnc(N[C@H]2C[C@@H]3CN(CC4CCOCC4)C[C@@H]3C2)cc1C(F)F` [compound 42, (3aR,5s,6aS)-N-(5-(difluoromethyl)-6-(5-fluoro-2-methoxyphenyl)pyridazin-3-yl)-2-((tetrahydro-2H-pyran-4-yl)methyl)octahydrocyclopenta[c]pyrrol-5-amine], the remaining activity at 30 µM came out at 2% and the pIC50 is 9.17.

Turning to `Fc1ccc(F)c(-c2cc(C(F)F)c(N[C@H]3C[C@@H]4CN(C[C@H]5COCCO5)C[C@@H]4C3)nn2)c1` [compound 81, (3aR,5R,6aS)-2-(((S)-1,4-dioxan-2-yl)methyl)-N-(4-(difluoromethyl)-6-(2,5-difluorophenyl)pyridazin-3-yl)octahydrocyclopenta[c]pyrrol-5-amine], the remaining activity at 30 µM stood at 4% and the pIC50 is 6.74.

For `[2H]C([2H])(C1CCOCC1)N1C[C@H]2C[C@H](Nc3nnc(-c4cccc(F)c4)cc3C)C[C@H]2C1` [compound 21, (3aR,5s,6aS)-N-(6-(3-fluorophenyl)-4-methylpyridazin-3-yl)-2-((tetrahydro-2H-pyran-4-yl)methyl-d2)octahydrocyclopenta[c]pyrrol-5-amine], the remaining activity at 30 µM worked out at 3% and the pIC50 was 8.91.

For the compound `COc1cc(-c2cc(F)ccc2C)nnc1N[C@H]1C[C@@H]2CN(CC3CCOCC3)C[C@@H]2C1` [compound 7, (3aR,5s,6aS)-N-(6-(5-fluoro-2-methylphenyl)-4-methoxypyridazin-3-yl)-2-((tetrahydro-2H-pyran-4-yl)methyl)octahydrocyclopenta[c]pyrrol-5-amine], the remaining activity at 30 µM is 9% and the pIC50 is 8.16.

As to `[2H]C([2H])(C1CCOCC1)N1C[C@H]2C[C@H](Nc3nnc(-c4cc(F)ccc4F)cc3C3CCC3)C[C@H]2C1` [compound 30, (3aR,5s,6aS)-N-(4-cyclobutyl-6-(2,5-difluorophenyl)pyridazin-3-yl)-2-((tetrahydro-2H-pyran-4-yl)methyl-d2)octahydrocyclopenta[c]pyrrol-5-amine], the remaining activity at 30 µM is 2% and the pIC50 was 6.94.

(Values after patent US20230122344A1, “ANTAGONISTS OF THE MUSCARINIC ACETYLCHOLINE RECEPTOR M4” (Vanderbilt University, priority 2019, published 2023).)
